Measured values from paper PMC5071857, “A unique peptide deformylase platform to rationally design and challenge novel active compounds” (Scientific Reports, 2016).
Read-outs that look alike come from different tables or passages of the source.

Columns and labels:
EcPDF = biological target: T1, EcPDF (Escherichia coli, UniProt P0A6K3); assay: PDF inhibition, formate dehydrogenase-coupled spectrophotometric assay (EcPDF); format: biochemical; conditions: for Ki: 10 nM EcPDF; for EcPDF KI/KI*app: enhancement potency (slow tight-binding)
T1 construct: made in house
Description: (§1) The formate released by the deformylation reaction is used by FDH to convert NAD in NADH, the production of which being measured over time at 340 nm and controlled temperature (37 °C). The 200 μL reaction mixture contained 50 mM HEPES-NaOH pH7.5, 12 mM NAD^+, 4.5 U/mL FDH, 1 mM NiCl2 and PDF enzyme (either 40 nM SaPDF or 10 nM EcPDF or 100 nM AtPDF1B) previously diluted in presence of 0.1 mg/mL BSA. The reaction was started by addition of 1–6 mM Fo-Met-Ala-Ser. Kinetics parameters (kcat, Km) were derived from iterative non-linear least square fits using the Michaelis-menten equation based on the experimental data (Sigma-Plot, Kinetics module).
(§2) 1/KI*app is the slope of the v0/vi curve in function of compound concentration, where v0 and vi are the initial reaction rates in absence and presence of compound, respectively.
(§3) Determination of KI values was performed with a slightly modified protocol: reaction was started by addition of enzyme instead of Fo-Met-Ala-Ser, the latter being directly added to the mixture containing increasing concentrations of each compound. No pre-incubation of enzyme in presence of compound was done. 1/KI is the slope of the v0/vi curve in function of compound concentration, where v0 and vi are the initial reaction rates in absence and presence of compound respectively.

[1] = tested on: E. coli AG100A (AcrAB- derivative); assay: MIC by microdilution, E. coli AG100A; format: cell-based; conditions: for MIC: Escherichia coli, 18 h, read-out: MIC AG100A; for MIC AG100A: with PMBN at 1/5 of its MIC, 18 h at 37 °C, average of three assays
Text: (§4) Two E. coli strains, one B. subtilis strain, one S. aureus strain, one E. faecalis strain, one S. agalactiae strain and three Enterobacter aerogenes strains previously described were used. Briefly, AG100 was an E. coli wild type strain and AG100A its acrAB^- derivative. EA289 was a Kan^s derivative of an E. aerogenes multi-drug resistant (MDR) clinical isolate overexpressing AcrAB-TolC efflux pumps, and EA294 and EA298 its acrAB^- and tolC^- derivatives respectively. Strains were routinely grown at 37 °C on Luria-Bertani (LB) agar or in Mueller-Hinton II broth (MH), supplemented with kanamycine (50 μg.mL^−1) for AG100A, EA294 and EA298.
(§5) MIC values of antibiotics were determined by the microdilution method in liquid MH media in microplates in the absence or presence of chemosensitizers/modulators (e.g. PMBN, PAβN), as previously described. Permeabilization, blocking of efflux pumps, and isolates with different levels of porin or efflux expression were used to assess the involvement of the membrane barrier in antibiotic activity.
(§6) Susceptibilities were determined in 96-wells microplates with an inoculum of 2 × 10^5 cfu in 200 μL of MH broth containing two-fold serial dilutions of each antibiotics or compounds. Molecules were tested alone or in combination with other molecules in equimolar ratio. MICs were realized in the absence and in the presence of a membrane permeabilizer, the polymyxine B nonapeptide (PMBN) used at 51.2 mg/L (1/5 or 1/10 of its direct MIC previously determined). Actinonin and ciprofloxacin were used as internal antibiotic reference. […] Each test was systematically performed in triplicate. The average of three independent assays is presented in μg/mL in the respective tables.

SaPDF [2] = biological target: T2, SaPDF (Streptococcus agalactiae serotype III, UniProt Q8E378, S2A); assay: biochemical; conditions: SaPDF KI*app, PDFI pre-incubated with enzyme 10 min at 37 °C, started by 2 mM Fo-Met-Ala-Ser; 40 nM SaPDF
T2 construct: the recombinant protein contains all residues of the 204 amino acids mature protein; made in house; host or cells: E. coli Rosetta 2(DE3)pLysS

SaPDF [3] = biological target: T2, SaPDF; assay: biochemical; conditions: for Ki: SaPDF KI, no pre-incubation, assay initiated by addition of enzyme, 40 nM SaPDF, 37 °C; for SaPDF KI/KI*app: enhancement potency (slow tight-binding)
Description: as §1, with “Enzymatic activity was measured by a spectrophotometric assay where peptide deformylase activity is coupled to that of formate dehydrogenase. The formate” for “The formate”
as §2, §3

AtPDF1B [4] = biological target: T3, AtPDF1B (Arabidopsis thaliana, UniProt Q9FUZ2); assay: PDF inhibition, formate dehydrogenase-coupled spectrophotometric assay (AtPDF1B); format: biochemical; conditions: no pre-incubation, assay initiated by addition of enzyme; 100 nM AtPDF1B; 37 °C
T3 construct: made in house
T3 sequence (Q9FUZ2 83-273): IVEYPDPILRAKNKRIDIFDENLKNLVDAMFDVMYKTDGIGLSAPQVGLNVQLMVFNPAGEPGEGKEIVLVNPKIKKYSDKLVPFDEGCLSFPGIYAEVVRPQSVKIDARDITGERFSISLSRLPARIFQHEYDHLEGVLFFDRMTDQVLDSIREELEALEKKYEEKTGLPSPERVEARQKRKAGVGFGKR

AtPDF1B [5] = biological target: T3, AtPDF1B; assay: as above; format: biochemical; conditions: for IC50 / Ki: 100 nM AtPDF1B; for IC50: 2 mM Fo-Met-Ala-Ser, 10 min pre-incubation at 37 °C; for Ki: PDFI pre-incubated with enzyme 10 min at 37 °C, started by 2 mM Fo-Met-Ala-Ser, read-out: AtPDF1B KI*app; for AtPDF1B KI/KI*app: enhancement potency (slow tight-binding)
Description: as §1, with “Enzymatic activity was measured by a spectrophotometric assay where peptide deformylase activity is coupled to that of formate dehydrogenase. The formate” for “The formate”
as §2, §3

E. coli AG100 = assay: MIC by microdilution, E. coli AG100; format: cell-based; conditions: 18 h at 37 °C, average of three assays; for MIC: Escherichia coli, AG100, without PMBN; for MIC AG100: with PMBN at 1/5 of its MIC
Text: as §4, §5, §6

E. faecalis EFA 103.214 = assay: MIC, E. faecalis EFA 103.214; format: cell-based; conditions: Enterococcus faecalis, EFA103.214, read-out: MIC E. faecalis EFA 103.214
Text: as §4, §5, §6

S. aureus SA113 = assay: MIC, S. aureus SA113; format: cell-based; conditions: Staphylococcus aureus
Text: as §4, §5, §6

[6] = tested on: E. aerogenes Ea294, Ea289 derivative AcrAB-; assay: MIC by microdilution, E. aerogenes Ea294; format: cell-based, Enterobacter aerogenes; conditions: for MIC Ea294: +PMBN at 1/5 of its MIC, average of three assays; for MIC: Klebsiella aerogenes, 18 h, read-out: MIC Ea294
Text: as §4, §5, §6

[7] = tested on: E. aerogenes Ea298, Ea289 derivative tolC-; assay: MIC by microdilution, E. aerogenes Ea298; format: cell-based, Enterobacter aerogenes; conditions: for MIC Ea298: +PMBN at 1/5 of its MIC, average of three assays; for MIC: Klebsiella aerogenes, 18 h, read-out: MIC Ea298
Text: as §4, §5, §6

[8] = tested on: E. aerogenes Ea289, MDR strain; assay: MIC by microdilution, E. aerogenes Ea289; format: cell-based, Enterobacter aerogenes; conditions: for MIC Ea289: +PMBN at 1/5 of its MIC, average of three assays; for MIC: Klebsiella aerogenes, 18 h, read-out: MIC Ea289
Text: as §4, §5, §6

[9] = EcPDF KI*app, PDFI pre-incubated with enzyme 10 min at 37 °C, started by 2 mM Fo-Met-Ala-Ser
[10] = EcPDF KI, no pre-incubation, assay initiated by addition of enzyme, 37 °C

T2 sequence (Q8E378 whole entry S2A): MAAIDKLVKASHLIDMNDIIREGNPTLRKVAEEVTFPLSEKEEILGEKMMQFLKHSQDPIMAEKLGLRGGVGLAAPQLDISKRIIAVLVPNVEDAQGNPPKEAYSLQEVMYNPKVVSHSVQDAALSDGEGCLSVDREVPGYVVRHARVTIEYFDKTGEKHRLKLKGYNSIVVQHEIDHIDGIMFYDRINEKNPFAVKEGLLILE
T1 sequence (P0A6K3 whole entry): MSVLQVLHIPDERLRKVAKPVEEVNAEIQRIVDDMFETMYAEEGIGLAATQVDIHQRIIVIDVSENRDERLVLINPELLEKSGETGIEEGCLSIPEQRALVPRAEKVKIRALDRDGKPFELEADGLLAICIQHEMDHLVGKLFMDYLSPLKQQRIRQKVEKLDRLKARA

| SMILES | IC50 (EcPDF) [nM] | Ki (EcPDF; [9]) [nM] | Ki (EcPDF; [10]) [nM] | EcPDF KI/KI*app (EcPDF) | MIC [1] [µg/mL] | MIC AG100A [1] [µg/mL] | Ki (SaPDF [2]) [nM] | IC50 (SaPDF [3]) [nM] | Ki (SaPDF [3]) [nM] | SaPDF KI/KI*app (SaPDF [3]) | Ki (AtPDF1B [4]) [nM] | IC50 (AtPDF1B [5]) [nM] | Ki (AtPDF1B [5]) [nM] | AtPDF1B KI/KI*app (AtPDF1B [5]) | MIC (E. coli AG100) [µg/mL] | MIC AG100 (E. coli AG100) [µg/mL] | MIC (E. faecalis EFA 103.214) [µg/mL] | MIC (S. aureus SA113) [µg/mL] | MIC Ea294 [6] [µg/mL] | MIC [6] [µg/mL] | other results |
| --- | --- | --- | --- | --- | --- | --- | --- | --- | --- | --- | --- | --- | --- | --- | --- | --- | --- | --- | --- | --- | --- |
| O=C(Cc1c[nH]c2ccc(Br)cc12)NO [AB47] | 37 ± 5 | 39 ± 2 | 47 ± 2 | 1 | 64 | 32 | 73 ± 5 | 63 ± 6 | 62 ± 3 | 1 | 455 ± 89 | 360 ± 31 | 400 ± 35 | 1 | > 64 | 64 |  |  |  |  |  |
| CCCCC(CC(=O)NO)c1nc(Cc2ccc(F)cc2)no1 (stereo not shown) [AT002] | 4 ± 1 | 5 ± 2 | 31 ± 7 | 6 | > 64 | 32 | 4 ± 0.5 | 3.5 ± 0.8 | 13 ± 1 |  | 58 ± 4 |  | 53 ± 3 | 1 | > 64 | 64 | > 64 | > 64 |  |  |  |
| CCCCC(CC(=O)NO)c1nc(Cc2ccc(C(F)(F)F)cc2)no1 (stereo not shown) [AT008] | 14 ± 2 | 18 ± 3 | 80 ± 10 | 4 | > 64 | 16 | 81 ± 5 | 25 ± 2 | 75 ± 4 | 1 | 909 ± 78 |  | 666 ± 29 | 1 | > 64 | >64 | > 64 | > 64 |  |  |  |
| CCCC[C@H](CC(=O)NO)c1nc(Cc2ccc(OC(F)(F)F)cc2)no1 [AT013] | 78 ± 11 | 80 ± 10 | 73 ± 12 | 1 | 32 | 4 | 51 ± 3 | 11 ± 1 | 70 ± 5 | 1 |  | 500 ± 15 | 303 ± 12 |  | > 64 | 16 | > 64 | > 64 | 16 | > 128 | MIC Ea298 [7]: 16 µg/mL; MIC [7]: 128 µg/mL; MIC Ea289 [8]: 64 µg/mL; MIC [8]: > 128 µg/mL |
| CCCC[C@H](CC(=O)NO)c1nc(Cc2coc3ccccc23)no1 [AT015] | 17 ± 2 | 10 ± 2 | 35 ± 5 | 3 | 32 | 2 | 122 ± 13 | 20 ± 3 | 166 ± 12 | 1 |  | 300 ± 12 | 1100 |  | > 64 | 16 | > 64 | > 64 | 16 | > 128 | MIC Ea298 [7]: 8 µg/mL; MIC [7]: 128 µg/mL; MIC Ea289 [8]: 128 µg/mL; MIC [8]: > 128 µg/mL |
| CCCCC(CC(=O)NO)c1nc(Cc2ccc(C(=O)OC)cc2)no1 (stereo not shown) [AT018] | 20 ± 2 | 12 ± 1 | 49 ± 3 | 4 | > 64 | 16 | 18 ± 1 | 20 ± 1 | 38 ± 6 | 2 | 1110 ± 100 | 650 ± 20 | 833 ± 10 | 1 | > 64 | 64 |  |  |  |  |  |
| CCCCC[C@H](CC(=O)NO)C(=O)N[C@H](C(=O)N1CCC[C@H]1CO)C(C)C [Actinonin, actinonin, reference compound] |  |  |  |  | 1 | 0.25 | 1 ± 0.1 | 3 ± 0.9 | 64 ± 5 |  | 82 ± 10 | 7.5 ± 1.8 | 3.5 ± 0.3 |  | 128 | 4 |  |  | 4 | 64 | MIC Ea298 [7]: 1 µg/mL; MIC [7]: 32 µg/mL; MIC Ea289 [8]: 32 µg/mL; MIC [8]: > 64 µg/mL |
| CC(C)(C)OC(=O)N[C@@H](Cc1ccccc1)CN(O)C=O [RAS358] | 110 ± 10 | 164 ± 40 | 833 ± 30 | 5 |  |  | 454 ± 29 | 150 ± 12 | 1430 ± 125 | 3 | 2000 ± 150 | 251 ± 15 | 400 ± 37 | 5 |  |  |  |  |  |  |  |
| O=C(Cc1cn(Cc2ccccc2)c2ccc(Br)cc12)NO [SMP195] | 17 ± 4 | 20 ± 3 | 29 ± 4 | 1 |  |  | 250 ± 17 | 110 ± 10 | 285 ± 18 | 1 | 909 ± 118 | 400 ± 33 | 833 ± 53 | 1 |  |  | 16 | 4 |  |  |  |
| O=C(Cn1cc(Cc2ccccc2)c2cc(Br)ccc21)NO [SMP289] | 480 ± 30 | 625 ± 75 | 769 ± 30 | 1 | > 64 | 4 | 714 ± 72 | 360 ± 21 | 909 ± 64 | 1 | 1000 ± 78 | 703 ± 47 | 1430 | 1 | > 64 | 8 | 16 | 4 |  |  |  |
